Source: ChEMBL document CHEMBL1201862, “PubChem BioAssay data set” (2004)
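Assay format: 96-well plates, 48-hour exposure. At the GI50, growth is halved.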 The source made the active and inactive calls. Rule as the data show it: active = GI50 up to about 1.1 µM and inactive = higher.

Tests used:
Test in all cases: NCI-60 cell line screen, 48 h
[1] = system: M14
[2] = system: OVCAR-4
[3] = system: A498
[4] = system: HCT-116
[5] = system: NCI-H460
[6] = system: RPMI-8226
[7] = system: SNB-75
[8] = system: UACC-257
[9] = system: NCI-H522
[10] = system: MOLT-4
[11] = system: PC-3
[12] = system: NCI/ADR-RES
[13] = system: SK-MEL-2
[14] = system: OVCAR-5
[15] = system: BT-549
[16] = system: RXF 393
[17] = system: SK-MEL-5
[18] = system: ACHN
[19] = system: HOP-92

Measured: GI50

Cc1c(CN2CCOCC2)c(CN2CCOCC2)c(C)n1-c1ccc(Cl)cn1
inactive: [1] > 100 µM | [2] > 100 µM | [3] > 100 µM | [4] > 100 µM | [5] > 100 µM | [6] > 100 µM | [7] > 100 µM | [8] > 100 µM | [9] > 100 µM | [10] > 100 µM | [11] > 100 µM | [12] > 100 µM | [13] > 100 µM | [14] > 100 µM | [15] > 100 µM | [16] > 100 µM | [17] > 100 µM | [18] > 100 µM

CCCNC1=Nc2ccccc2NC(C)C1 (stereo not given)
inactive: [1] > 100 µM | [2] > 100 µM | [3] > 100 µM | [4] > 100 µM | [5] > 100 µM | [6] > 100 µM | [7] 22.6 µM | [8] > 100 µM | [9] > 100 µM | [10] > 100 µM | [11] > 100 µM | [12] > 100 µM | [13] > 100 µM | [14] > 100 µM | [15] > 100 µM | [16] > 100 µM | [17] > 100 µM | [18] > 100 µM

CCN1C(=O)C(C)S/C1=N\NC(=O)CSc1nc2ccccc2c(=O)n1CC (stereo not given)
inactive: [1] > 100 µM | [2] 92 µM | [3] > 100 µM | [4] > 100 µM | [5] 3.12 µM | [6] > 100 µM | [7] > 100 µM | [8] > 100 µM | [9] > 100 µM | [10] > 100 µM | [11] > 100 µM | [12] > 100 µM | [13] > 100 µM | [14] > 100 µM | [15] > 100 µM | [16] > 100 µM | [17] > 100 µM | [18] > 100 µM

CC#CCCCC1(C)CCCNC1=S (stereo not given)
inactive: [1] > 10 µM | [2] > 10 µM | [5] > 10 µM | [7] > 10 µM | [19] > 10 µM | [8] > 10 µM | [9] > 10 µM | [10] > 10 µM | [11] > 10 µM | [12] > 10 µM | [13] > 10 µM | [14] > 10 µM | [15] > 10 µM | [16] > 10 µM | [17] > 10 µM | [18] > 10 µM

CCOC(=O)C1C(=O)CC1(C)C (stereo not given)
inactive: [1] > 10 µM | [2] > 10 µM | [3] > 10 µM | [4] > 10 µM | [5] > 10 µM | [6] > 10 µM | [19] > 10 µM | [8] > 10 µM | [10] > 10 µM | [11] > 10 µM | [12] > 10 µM | [13] > 10 µM | [14] > 10 µM | [15] > 10 µM | [16] > 10 µM | [17] > 10 µM | [18] > 10 µM

N#C[C@@H](c1ccccn1)c1ncccc1[N+](=O)[O-]
inactive: [1] > 100 µM | [2] > 100 µM | [3] > 100 µM | [4] > 100 µM | [5] > 100 µM | [6] > 100 µM | [7] > 100 µM | [9] > 100 µM | [10] > 100 µM | [11] > 100 µM | [12] > 100 µM | [13] > 100 µM | [14] > 100 µM | [15] > 100 µM | [16] > 100 µM | [17] 90.2 µM | [18] > 100 µM

O=c1oc2ccc([N+](=O)[O-])cc2c(Nc2ccc3c(c2)S(=O)(=O)c2ccccc2O3)c1[N+](=O)[O-]
inactive: [1] 42.9 µM | [2] > 100 µM | [4] 73.5 µM | [5] 98.4 µM | [6] 39 µM | [7] 73.6 µM | [19] 51.2 µM | [8] > 100 µM | [9] 87.1 µM | [10] 40.1 µM | [11] 34.8 µM | [12] > 100 µM | [13] 52.2 µM | [14] > 100 µM | [15] 73.1 µM | [16] 45.4 µM | [17] 81.8 µM | [18] > 100 µM

CNC(Cc1ccccc1)c1cccc(OC)c1O (stereo not given)
inactive: [1] > 100 µM | [2] > 100 µM | [3] > 100 µM | [4] > 100 µM | [5] > 100 µM | [19] > 100 µM | [8] 18.6 µM | [9] > 100 µM | [10] > 100 µM | [11] 60.7 µM | [12] > 100 µM | [13] > 100 µM | [14] > 100 µM | [15] > 100 µM | [16] > 100 µM | [17] > 100 µM | [18] > 100 µM

CCOC(=O)C(=C(SC)SC)c1nn2c(=O)cc(C)nc2s1
inactive: [1] 15.9 µM | [2] 28.5 µM | [4] 16.4 µM | [5] 24 µM | [6] 17.3 µM | [7] 31.4 µM | [19] 16.9 µM | [8] 23.9 µM | [9] 23 µM | [10] 17.7 µM | [11] 23.3 µM | [12] 36.5 µM | [13] 20.1 µM | [14] 28.4 µM | [15] 18.2 µM | [16] 22.6 µM | [17] 22 µM | [18] 18.4 µM

C/C(=N\NC(=O)c1ccc(Cl)cc1)c1nc2cccnc2[nH]1
inactive: [1] 36.2 µM | [2] 18.2 µM | [3] 43.8 µM | [4] 32.6 µM | [5] 14.7 µM | [6] 27 µM | [7] 3.26 µM | [8] 20 µM | [9] 18.7 µM | [10] 14.3 µM | [11] > 100 µM | [12] 20.5 µM | [13] 28.4 µM | [14] > 100 µM | [15] 22.3 µM | [16] 18.1 µM | [17] 15.8 µM | [18] 15.7 µM

O=C1/C(=C/c2cccs2)N=C(c2ccccc2)N1c1nc2ccccc2s1
inactive: [1] > 100 µM | [3] > 100 µM | [4] 38.4 µM | [5] 68.5 µM | [6] 7.45 µM | [19] 26.5 µM | [8] > 100 µM | [9] 4.14 µM | [10] 11.7 µM | [11] > 100 µM | [12] 64.4 µM | [13] > 100 µM | [14] > 100 µM | [15] 53.3 µM | [16] 33.3 µM | [17] > 100 µM | [18] > 100 µM

Cc1c(N2C(=O)C(Cl)C2/C=C/c2ccccc2)c(=O)n(-c2ccccc2)n1C (stereo not given)
inactive: [1] 17.2 µM | [2] 29.5 µM | [4] 16.9 µM | [5] 26.7 µM | [6] 11.3 µM | [7] 34.1 µM | [19] 14.1 µM | [8] 4.68 µM | [9] 14.4 µM | [10] 13.4 µM | [11] 31.6 µM | [12] > 100 µM | [13] 17.3 µM | [14] 43.9 µM | [15] 33.4 µM | [16] 26.9 µM | [17] 15.8 µM | [18] 20.3 µM

Clc1ccc(Oc2ccc(/N=C/c3ccc(Cl)cc3Cl)cc2Cl)cc1
inactive: [1] 29.4 µM | [2] 44.5 µM | [4] 33 µM | [5] 63.7 µM | [6] 9.2 µM | [7] 23.6 µM | [19] 34.2 µM | [8] 66.1 µM | [9] 25.2 µM | [10] 21.7 µM | [11] 35 µM | [12] 25.7 µM | [13] 61.2 µM | [14] > 100 µM | [15] 29.2 µM | [17] 36.1 µM | [18] > 100 µM

Clc1cc2nnn(C3CCCCO3)c2cc1Cl (stereo not given)
inactive: [1] > 100 µM | [2] > 100 µM | [3] 36.1 µM | [4] 79.8 µM | [5] 88.9 µM | [6] > 100 µM | [7] 34.4 µM | [8] 60.7 µM | [9] 42.5 µM | [10] 75.7 µM | [11] 58.1 µM | [12] 48.3 µM | [13] > 100 µM | [14] > 100 µM | [15] 41.5 µM | [16] > 100 µM | [17] 38.7 µM | [18] > 100 µM

O=C1CCCC/C1=C\c1ccc([N+](=O)[O-])cc1
inactive: [1] 18.4 µM | [2] 22.5 µM | [4] 12.4 µM | [5] 35.4 µM | [6] 7.57 µM | [7] 18.3 µM | [19] 19.6 µM | [8] 15.5 µM | [9] 11 µM | [10] 5.48 µM | [11] 2.03 µM | [12] 19.5 µM | [13] 21.5 µM | [14] 54.2 µM | [15] 23.3 µM | [17] 27.2 µM | [18] 24 µM

O=C1CCC(N2C(=O)c3ccccc3C2=O)C(=O)N1 (stereo not given) [THALIDOMIDE]
inactive: [1] > 100 µM | [2] > 100 µM | [4] > 100 µM | [5] > 100 µM | [6] > 100 µM | [7] > 100 µM | [19] > 100 µM | [8] > 100 µM | [9] > 100 µM | [10] > 100 µM | [11] > 100 µM | [12] > 100 µM | [13] > 100 µM | [14] > 100 µM | [15] > 100 µM | [16] > 100 µM | [17] > 100 µM | [18] > 100 µM
